Like-named read-outs stand apart in the source and are kept apart here. Values belong to the compound of their own block, whether it stands above or below them.
Assays:
Eg5 = conditions: experimental binding free energy, ref Schrödinger FEP+ benchmark; cited from earlier work
SHP2^WT (1–593) = target: T1, SHP2^WT (1–593) (Homo sapiens, UniProt Q06124); test: SHP-2 prompt fluorescence phosphatase assay (DiFMUP), SHP2^WT; format: biochemical; parameters: ΔG experiment: unit not given here; conditions: for pIC50: from experimental IC50; for ΔG experiment: experimental binding free energy converted from IC50; for ΔGexp: converted from IC50 with ΔGexp ≈ kBTlog IC50
T1 construct: made in house; host or cells: E. coli BL21 Star (DE3), pET30 vector
T1 sequence (Q06124 1-593): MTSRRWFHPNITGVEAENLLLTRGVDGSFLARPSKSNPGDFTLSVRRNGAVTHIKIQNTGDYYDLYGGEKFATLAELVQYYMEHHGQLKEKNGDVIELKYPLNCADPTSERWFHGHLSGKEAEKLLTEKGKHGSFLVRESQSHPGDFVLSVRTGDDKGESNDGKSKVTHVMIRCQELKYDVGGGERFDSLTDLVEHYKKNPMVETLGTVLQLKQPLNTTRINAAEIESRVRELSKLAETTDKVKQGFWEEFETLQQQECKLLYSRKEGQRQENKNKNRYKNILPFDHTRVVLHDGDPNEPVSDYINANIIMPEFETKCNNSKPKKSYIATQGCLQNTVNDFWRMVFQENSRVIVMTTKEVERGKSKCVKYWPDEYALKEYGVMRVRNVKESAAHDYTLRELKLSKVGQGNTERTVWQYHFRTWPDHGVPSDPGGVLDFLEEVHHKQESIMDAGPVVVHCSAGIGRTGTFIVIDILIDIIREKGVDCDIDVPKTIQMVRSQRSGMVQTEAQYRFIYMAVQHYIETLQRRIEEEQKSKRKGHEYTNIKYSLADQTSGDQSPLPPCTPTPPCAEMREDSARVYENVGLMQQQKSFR
Description: Briefly, the constructs were transformed into BL21 Star^TM (DE3) cells and cultured at 37 °C for 3~4 h. Subsequently, the cells with high expression of SHP2 protein were harvested after being induced by IPTG and grown overnight at 18 °C. Cell pellets were resuspended in lysis buffer (25 mM imidazole, 50 mM Tris−HCl, 500 mM NaCl, 2.5 mM MgCl2, 1 mM tris(2-carboxyethyl)phosphine (TCEP), 1 μg/mL DNase1, and complete EDTA-free protease inhibitor) and lysed using Low Temperature Ultrahigh Pressure Continuous Flow Cell Disrupter (JNBIO), followed by ultracentrifugation. The supernatant was collected. Then, the SHP2 was purified from the collected supernatant by using HisTrap HP chelation column, TEV protease, and HiTrap Q FastFlow column.
Then, the mixture was then incubated at 25 °C for 60 min. To initiate the reaction, the surrogate substrate DiFMUP (Invitrogen, cat. no. D6567, Shuzhou, China, 200 μM) was added and incubated at 25 °C for another 30 min. […] Fluorescence signal was detected using a microplate reader (Bio-Tek, Shanghai, China, Synergy2) at Ex/Em = 340/450 nm. Using control-based normalization, normalized IC50 regression curves were fitted to inhibitor dose response curves.

c-Met [1] = tested on: c-Met; parameters: method as in earlier work; conditions: FEP+ predicted ΔG from the benchmark; cited from earlier work
THR-β = test: Experimental THR-β activity of agonists taken from Hu et al.; format: biochemical; conditions: Table S4, converted from the experimental value
Description: In the initial phase of our investigation, we conducted a retrospective evaluation of FMOScore’s performance concerning thyroid hormone receptor β (THR-β) agonists, using a set of 18 compounds taken from the work of Hu et al. [65]

c-Met [2] = tested on: c-Met; parameters: method as in earlier work; conditions: Schrödinger FEP+ benchmark; cited from earlier work
SYK [3] = conditions: experimental binding free energy, ref Schrödinger FEP+ benchmark; cited from earlier work
SYK [4] = tested on: SYK; parameters: method as in Schrödinger FEP+ benchmark; conditions: FEP+ predicted binding free energy, ref Schrödinger FEP+ benchmark; cited from earlier work
[5] = SHP-2_case sheet, designed SHP-2 inhibitors, read-out: IC50uM
[6] = SHP-2_case sheet, same IC50 restated in another unit, read-out: IC50nM
[7] = SHP2^WT, DiFMUP substrate, averages of three independent experiments, read-out: SHP-2 IC50

SMILES: Clc1ccc2c(c1)[C@H]1OCCC[C@H]1[C@H](c1ccccc1)N2 [CHEMBL1089393]
Exp. ΔG (Eg5): -8.38 kcal/mol

IC50 (SHP2^WT (1–593); [5]): 2.29 µM
pIC50 (SHP2^WT (1–593); SHP-2_case sheet): 5.64
IC50 (SHP2^WT (1–593); [6]): 2.29 µM
ΔG experiment (SHP2^WT (1–593)): -7.69
SMILES: Nc1cc(N2CCC3(CCCC3N)CC2)cnc1Sc1cccc(Cl)c1Cl (centres unmarked) [A-S8]

SMILES: CNCCS(=O)(=O)NC[C@H]1CC[C@@H]2[C@H](O1)c1cc(C(F)(F)F)ccc1N[C@H]2c1ccccc1 [CHEMBL1084677]
Exp. ΔG (Eg5): -11.46 kcal/mol

IC50 (SHP2^WT (1–593); [7]): 23.5 ± 2.86 µM
ΔGexp (SHP2^WT (1–593)): -6.311 kcal/mol
fold reduced inhibition on morphing the piperazine ring (relative to compound 1) (SHP2^WT (1–593); ratio of IC50): 15 fold
SMILES: Nc1cc(NC2CCNCC2)cnc1-c1cccc(Cl)c1Cl [Compound 4, 2-(2,3-dichlorophenyl)-N5-(piperidin-4-yl) pyridine-3,5-diamine]
FEP (c-Met [1]): -7.41 kcal/mol
ΔGexp (THR-β): -5.453 kcal/mol
Exp. ΔG (c-Met [2]): -8.9 kcal/mol
Exp. ΔG (SYK [3]): -11.36 kcal/mol
FEP (SYK [4]): -9.49 kcal/mol

SMILES: CC(C)(C)c1ccc2c(c1)[C@H]1OCCC[C@H]1[C@H](c1ccsc1)N2 [CHEMBL1084115]
Exp. ΔG (Eg5): -9.44 kcal/mol

SMILES: CNC[C@H]1CC[C@@H]2[C@H](O1)c1cc(Br)cc(F)c1N[C@H]2c1ccccc1 [CHEMBL1082248]
Exp. ΔG (Eg5): -11.63 kcal/mol

SMILES: CC(C)(C)c1ccc2c(c1)[C@H]1OCCC[C@H]1[C@H](c1ccc(O)cc1)N2 [CHEMBL1078691]
Exp. ΔG (Eg5): -10.19 kcal/mol

SMILES: Cc1ccc2c(c1)[C@H]1OCCC[C@H]1[C@H](c1ccccc1)N2 [CHEMBL1088740]
Exp. ΔG (Eg5): -8.7 kcal/mol

SMILES: CN(C)CCCC(=O)NC[C@H]1CC[C@@H]2[C@H](O1)c1cc(Br)cc(F)c1N[C@H]2c1ccccc1 [CHEMBL1085692]
Exp. ΔG (Eg5): -11.32 kcal/mol

SMILES: CC1(N)CCN(c2cnc(Sc3cccc(Cl)c3Cl)c(N)c2)CC1 [A-S7]
IC50 (SHP2^WT (1–593); [5]): 11.2 µM
pIC50 (SHP2^WT (1–593); SHP-2_case sheet): 4.949
IC50 (SHP2^WT (1–593); [6]): 11.2 µM
ΔG experiment (SHP2^WT (1–593)): -6.748

SMILES: CC(=O)NCCNC[C@H]1CC[C@@H]2[C@H](O1)c1cc(Br)cc(F)c1N[C@H]2c1ccccc1 [CHEMBL1082249]
Exp. ΔG (Eg5): -11.22 kcal/mol

IC50 (SHP2^WT (1–593); [5]): 23.5 µM
pIC50 (SHP2^WT (1–593); SHP-2_case sheet): 4.629
IC50 (SHP2^WT (1–593); [6]): 23.5 µM
ΔG experiment (SHP2^WT (1–593)): -6.312
SMILES: Nc1cc(NC2CCNCC2)cnc1-c1cccc(Cl)c1Cl [A-S4]

SMILES: Cc1ccc(C(=O)N(CCN)C[C@H]2CC[C@@H]3[C@H](O2)c2cc(C(F)(F)F)ccc2N[C@H]3c2ccccc2)cc1 [CHEMBL1084431]
Exp. ΔG (Eg5): -9.8 kcal/mol

inhibitory activity against SHP-2 (in words) (SHP2^WT (1–593); Figure S4, DIFMUP substrate, mean ± SD (n = 3)): potent inhibitory activity
IC50 (SHP2^WT (1–593); [7]): 2.29 ± 0.66 µM
ΔGexp (SHP2^WT (1–593)): -7.690 kcal/mol
SMILES: Nc1cc(N2CCC3(CCCC3N)CC2)cnc1Sc1cccc(Cl)c1Cl (centres unmarked) [Compound 8, 8-(5-amino-6-((2,3-dichlorophenyl)thio)pyridin-3-yl)-8-azaspiro[4.5]decan-1-amine]
FEP (c-Met [1]): -9.12 kcal/mol
ΔGexp (THR-β): -8.072 kcal/mol
Exp. ΔG (c-Met [2]): -10.06 kcal/mol
Exp. ΔG (SYK [3]): -9.78 kcal/mol
FEP (SYK [4]): -10.6 kcal/mol

SMILES: NC[C@H]1CC[C@@H]2[C@H](O1)c1cc(C(F)(F)F)ccc1N[C@H]2c1ccccc1 [CHEMBL1085666]
Exp. ΔG (Eg5): -10.5 kcal/mol

IC50 (SHP2^WT (1–593); [7]): 15.1 ± 0.8 µM
ΔGexp (SHP2^WT (1–593)): -6.573 kcal/mol
SMILES: CC1(N)CCN(c2cnc(-c3cccc(F)c3Cl)c(N)c2)CC1 [Compound 5, 5-(4-amino-4-methylpiperidin-1-yl)-2-(2-chloro-3-fluorophenyl) pyridin-3-amine]
FEP (c-Met [1]): -8.31 kcal/mol
ΔGexp (THR-β): -5.453 kcal/mol
Exp. ΔG (c-Met [2]): -9.14 kcal/mol

SMILES: CNC[C@H]1CC[C@@H]2[C@H](O1)c1cc(C(F)(F)F)ccc1N[C@H]2c1ccc(O)cc1 [CHEMBL1083517]
Exp. ΔG (Eg5): -11.46 kcal/mol

SMILES: CN(C)CCOC(=O)NC[C@H]1CC[C@@H]2[C@H](O1)c1cc(C(F)(F)F)ccc1N[C@H]2c1ccccc1 [CHEMBL1084676]
Exp. ΔG (Eg5): -10.71 kcal/mol

SMILES: CC(C)(C)c1ccc2c(c1)[C@H]1OCCC[C@H]1[C@H](c1ccccc1)N2 [CHEMBL1089056]
Exp. ΔG (Eg5): -9.44 kcal/mol

SMILES: CNC[C@H]1CC[C@@H]2[C@H](O1)c1cc(C3CC3)ccc1N[C@H]2c1ccccc1 [CHEMBL1083836]
Exp. ΔG (Eg5): -10.86 kcal/mol
